We go through seven molecules from patent US20120302607A1, “C4-SUBSTITUTED ALPHA-KETO OXAZOLES” (The Scripps Research Institute, priority 2008, published 2012).

Data set [1] concerns the target T1, triacylglycerol hydrolase (TGH) (UniProt Q8VCT4).
T1 sequence (Q8VCT4 1-565): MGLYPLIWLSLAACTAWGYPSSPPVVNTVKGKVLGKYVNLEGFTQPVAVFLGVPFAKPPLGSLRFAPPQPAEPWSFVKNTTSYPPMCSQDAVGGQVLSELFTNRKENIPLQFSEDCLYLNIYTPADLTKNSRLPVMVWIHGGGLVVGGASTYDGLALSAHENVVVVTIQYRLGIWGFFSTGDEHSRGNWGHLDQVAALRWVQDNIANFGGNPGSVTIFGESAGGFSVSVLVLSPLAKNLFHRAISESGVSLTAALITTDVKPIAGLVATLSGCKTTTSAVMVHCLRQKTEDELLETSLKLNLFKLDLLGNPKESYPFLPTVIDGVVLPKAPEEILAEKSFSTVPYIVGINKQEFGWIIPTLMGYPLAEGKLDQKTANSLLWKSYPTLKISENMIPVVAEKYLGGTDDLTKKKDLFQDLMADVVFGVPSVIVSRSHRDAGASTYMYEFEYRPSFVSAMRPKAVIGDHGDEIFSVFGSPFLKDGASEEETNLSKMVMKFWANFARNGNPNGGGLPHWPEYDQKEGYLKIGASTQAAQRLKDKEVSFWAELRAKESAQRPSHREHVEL
In words: Proteome-wide serine hydrolase selectivity screening, TGH. The class given is biochemical, human. To be noted: selectivity screening.

In data set [2] the test system is triacylglycerol hydrolase (TGH). Described as above. The class given is biochemical, human. To be noted: FAAH versus TGH; for TGH (selectivity): value in parentheses.
Data set [3] concerns the target T2, FAAH (UniProt O08914).
T2 sequence (O08914 1-579): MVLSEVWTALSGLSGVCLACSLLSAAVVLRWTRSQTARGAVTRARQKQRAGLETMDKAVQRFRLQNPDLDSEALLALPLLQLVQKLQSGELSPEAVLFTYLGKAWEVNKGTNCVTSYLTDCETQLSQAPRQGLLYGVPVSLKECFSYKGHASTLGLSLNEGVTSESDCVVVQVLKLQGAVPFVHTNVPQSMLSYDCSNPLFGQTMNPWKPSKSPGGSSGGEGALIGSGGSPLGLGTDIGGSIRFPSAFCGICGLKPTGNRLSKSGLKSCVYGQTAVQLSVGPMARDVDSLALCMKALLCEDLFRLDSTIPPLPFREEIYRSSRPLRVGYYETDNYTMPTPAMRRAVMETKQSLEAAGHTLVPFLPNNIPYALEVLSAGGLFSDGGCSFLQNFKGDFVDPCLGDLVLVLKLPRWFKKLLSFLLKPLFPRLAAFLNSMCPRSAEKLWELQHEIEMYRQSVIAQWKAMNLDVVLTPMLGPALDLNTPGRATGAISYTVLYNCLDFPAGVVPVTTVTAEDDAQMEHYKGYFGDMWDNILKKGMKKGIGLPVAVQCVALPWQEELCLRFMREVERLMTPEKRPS
Put plainly: Proteome-wide serine hydrolase selectivity screening, FAAH. The class given is biochemical, human.

In data set [4] the target is T3, truncated rat FAAH (rFAAH) (Rattus norvegicus, UniProt P97612).
T3 construct: The truncated rat FAAH (rFAAH) was expressed in E. coli and purified as described by Patricelli et al; made in house; host or cells: E. coli
T3 sequence (P97612 30-579 limits assumed): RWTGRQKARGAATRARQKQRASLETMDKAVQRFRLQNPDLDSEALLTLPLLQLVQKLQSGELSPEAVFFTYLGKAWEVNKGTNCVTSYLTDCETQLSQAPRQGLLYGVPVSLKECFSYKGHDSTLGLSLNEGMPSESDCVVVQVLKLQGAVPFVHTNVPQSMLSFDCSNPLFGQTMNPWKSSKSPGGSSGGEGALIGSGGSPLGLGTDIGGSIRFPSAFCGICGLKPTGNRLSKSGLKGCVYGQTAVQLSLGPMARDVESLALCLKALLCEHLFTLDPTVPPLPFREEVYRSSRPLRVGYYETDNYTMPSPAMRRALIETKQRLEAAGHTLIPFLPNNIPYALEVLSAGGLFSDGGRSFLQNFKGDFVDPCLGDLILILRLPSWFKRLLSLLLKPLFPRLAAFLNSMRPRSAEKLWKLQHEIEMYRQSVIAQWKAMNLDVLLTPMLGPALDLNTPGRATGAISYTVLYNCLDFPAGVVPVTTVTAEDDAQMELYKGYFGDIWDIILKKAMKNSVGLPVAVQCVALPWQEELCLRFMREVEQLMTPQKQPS
Put plainly: Rat FAAH inhibition enzyme assay (14C-oleamide hydrolysis, Dixon plot). It is filed as biochemical. On the procedure:
The purified recombinant rFAAH was used in the inhibition assays unless otherwise indicated.
The ^14C-labeled oleamide (substrate) and oleic acid (product) were extracted with EtOAc and analyzed by TLC. The Ki of the inhibitor was calculated using a Dixon plot (standard deviations are provided in the Supporting Information tables).

Data set [5] has as its target T4, membrane-associated hydrolase (KIAA1363) (UniProt Q8BLF1).
T4 sequence (Q8BLF1 1-408): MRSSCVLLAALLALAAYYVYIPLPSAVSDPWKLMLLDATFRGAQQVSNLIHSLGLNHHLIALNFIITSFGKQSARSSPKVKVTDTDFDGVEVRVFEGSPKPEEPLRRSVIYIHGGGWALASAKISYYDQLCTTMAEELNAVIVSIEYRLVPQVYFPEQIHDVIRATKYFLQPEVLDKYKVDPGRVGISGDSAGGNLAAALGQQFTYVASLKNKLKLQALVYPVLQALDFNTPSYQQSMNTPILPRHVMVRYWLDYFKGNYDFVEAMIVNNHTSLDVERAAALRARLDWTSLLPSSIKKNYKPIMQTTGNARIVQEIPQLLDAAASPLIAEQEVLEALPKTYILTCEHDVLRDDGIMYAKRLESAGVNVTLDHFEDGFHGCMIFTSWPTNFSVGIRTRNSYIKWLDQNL
In words: Proteome-wide serine hydrolase selectivity screening, KIAA1363. The conditions noted are these: selectivity screening. It is filed as biochemical.

Data set [6] relates to membrane-associated hydrolase (KIAA1363). The description is as above. The class given is biochemical. The conditions noted are these: value in parentheses; FAAH versus KIAA1363.
The nature of data set [7]: % hydration or hemiketal formation by 1H and 13C NMR in solvent. The class given is physicochemical. The source says:
The evaluation of Ki provides information about active site binding. […] More subtly, aldehyde 4g (and trifluoromethyl ketone 4i) was established to exist in protic solution as gem diols (at C4, not C2; ^1H and ^13C NMR, data in Examples below).

The mark [8] stands for this setting: Table 1, purified recombinant rFAAH, pH 9.0, read-out: Rat FAAH inhibition Ki.
[9] abbreviates: Table 4, value ± error, read-out: Ki, inhibition results with calculated errors.

Structures are written as SMILES. Like-named read-outs stand apart in the source and are kept apart here.

For orientation: IC50 means the concentration that inhibits the measured activity by half. A low value points to greater potency. As a reminder, the Ki is the dissociation constant of the complex between target and ligand, obtained from inhibition or displacement.

In the case of `O=C(CCCCCCc1ccccc1)c1nc(-c2ccccn2)co1` [Compound 4k, 7-Phenyl-1-(4-(pyridin-2-yl)oxazol-2-yl)heptan-1-one], the results for the IC50 in data set [1], in data set [3] and in data set [5] were 10000 nM, 30 nM and > 100000 nM, respectively. In addition, in data set [2] (relative to 4a, text b175), the “enhancement in FAAH selectivity” value is recorded as > 40,000 fold. The “TGH (selectivity)” value in data set [2] was “(330)”. For the same molecule, the Ki was 1.9 nM in data set [4] (setting [8]); 1.9 nM in data set [4] (Table 2, read-out: FAAH Ki); 1.9 ± 0.02 nM in data set [4] (setting [9]). The “KIAA1363 (selectivity)” value in data set [6] was “(>3000)”.

Take `O=C(CCCCCCc1ccccc1)c1nc(-c2cccnc2)co1` [Compound 4l, 7-Phenyl-1-(4-(pyridin-3-yl)oxazol-2-yl)heptan-1-one]: the “% Hydration or Hemiketal Formation” value in data set [7] (CD3OD, at the C4 substituent carbonyl) is >95% for COCF3; in data set [7] (CDCl3), 33%. The figures for the inhibition constant Ki in data set [4] (setting [8]) and in data set [4] (setting [9]) were 18 nM and 18 ± 0.1 nM, respectively.

For `O=C(CCCCCCc1ccccc1)c1nc(-c2ccncc2)co1` [Compound 4m, 7-phenyl-1-(4-(pyridin-4-yl)oxazol-2-yl)heptan-1-one], the IC50 in data set [1] was 700 nM; in data set [3] it was 140 nM; in data set [5], > 100000 nM. Also, in data set [2], the “TGH (selectivity)” value is given as “(5)”. For the same molecule, the Ki in data set [4] (setting [8]) was 1.6 nM; in data set [4] (Table 2, read-out: FAAH Ki), 1.7 nM; in data set [4] (setting [9]), 1.6 ± 0.01 nM. Moreover, the “KIAA1363 (selectivity)” value in data set [6] was “(>700)”.

Turning to `O=C(O)c1coc(C(=O)CCCCCCc2ccccc2)n1` [Compound 4o, 2-(7-Phenylheptanoyl)oxazole-4-carboxylic Acid], the IC50 is 2500 nM in data set [1], 500 nM in data set [3] and > 100000 nM in data set [5]. Also, in data set [2], the “TGH (selectivity)” value is recorded as “(5)”. The Ki in data set [4] (setting [8]) was 53 nM; in data set [4] (Table 2, read-out: FAAH Ki), 53 nM; in data set [4] (setting [9]), 53 ± 1 nM. Moreover, the “KIAA1363 (selectivity)” value in data set [6] is “(>200)”.

As for `N#Cc1coc(C(=O)CCCCCCc2ccccc2)n1` [Compound 4s, 2-(7-Phenylheptanoyl)oxazole-4-carbonitrile], the half-inhibitory concentration (IC50) was found to be 30 nM in data set [1], 20 nM in data set [3] and 30000 nM in data set [5]. For the same molecule, the “TGH (selectivity)” value in data set [2] is given as “(1.5)”. Moreover, the Ki in data set [4] (setting [8]) is 0.5 nM; in data set [4] (Table 2, read-out: FAAH Ki) it was 0.6 nM; in data set [4] (setting [9]), 0.5 ± 0.009 nM. Also, the “KIAA1363 (selectivity)” value in data set [6] was “(1500)”.

Turning to `O=C(CCCCCCc1ccccc1)c1nc(C(F)(F)F)co1` [Compound 4t, 7-Phenyl-1-(4-(trifluoromethyl)oxazol-2-yl)heptan-1-one], the IC50 in data set [1] was determined as 60 nM; in data set [3] it was 400 nM; in data set [5], 10000 nM. Further, in data set [2], the “TGH (selectivity)” value was “(0.15)”. In addition, the Ki in data set [4] (setting [8]) is 3.7 nM; in data set [4] (Table 2, read-out: FAAH Ki), 3.7 nM; in data set [4] (setting [9]) it was 3.7 ± 0.02 nM. In data set [6], the “KIAA1363 (selectivity)” value is listed as “(25)”.

Take `O=C(CCCCCCc1ccccc1)c1ncc(C(F)(F)F)o1` [Compound 5a, reference compound]: the IC50 in data set [1] was 200 nM; in data set [3] it was 70 nM; in data set [5], > 100000 nM. The “TGH (selectivity)” value in data set [2] is reported as “(3)”. Also, the Ki in data set [4] (Table 2, read-out: FAAH Ki) was determined as 0.3 nM. Moreover, the “KIAA1363 (selectivity)” value in data set [6] was “(>1400)”.
